Laboratory results from patent US8197860B2, “Method for enhancing nutrient absorption with astragalosides” (Nuliv Holding Inc., priority 2005, dated 2012).

Assays:
Assay type in all cases: cell-based, human
Caco-2 cell monolayer [1] = assay: Arginine absorption assay (transport across Caco-2 cell monolayer); parameters: key to * (regulatory effect on arginine transport): ↑: the arrows that point up represent the enhancing effect on the arginine transport; details: for Transport rate (arginine): 10 mM L-arginine apical
How it was run: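 Differentiated Caco-2 monolayers on transwells, preincubated 1 h at 37° C in pH 7.4 Hepes-buffered saline with glucose. Apical 10 mM L-arginine spiked with L-[3H]-arginine; basolateral radioactivity sampled over time. Transport corrected by [3H]-mannitol, expressed as nmol/min.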

Caco-2 cell monolayer [2] = assay: Tryptophan absorption assay (transport across Caco-2 cell monolayer); parameters: key to * (regulatory effect on tryptophan transport): ↑: the arrows that point up represent the enhancing effect on the tryptophan transport
How it was run: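 Differentiated Caco-2 monolayers on transwell filters were preincubated for 1 h at 37 °C in choline chloride-based buffer at pH 7.4. Transport began when apical tryptophan was added. Basolateral samples taken over time were counted, corrected for nonspecific flux using [3H]-mannitol, and expressed as nmol/min.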

Caco2 cells [3] = assay: Glucose uptake assay; parameters: key to * (regulatory effect on glucose uptake): ↑: the arrows that point up represent the enhancing effect on the glucose uptake; details: for Uptake rate (glucose): 48 hours, 25 mM glucose
Method: To evaluate the effect of the isolated astragaloside compound on the uptake of nutrient substances across the intestinal lumen, Caco-2 cells were grown on permeable filter as an experimental model. Caco2 cells originate from human colonic adenocarcinoma and spontaneously differentiate into an enterocyte-like phenotype after two weeks. The Caco-2 cell line, derived from a human colorectal carcinoma, has been used as an in vitro model system for studying drug absorption in gastrointestinal tract. These cells form monolayers with well-developed tight-junctions, and have been evaluated in details as an in vitro model to study both transcellular transport of nutrients and drugs in intestinal lumen.
Caco-2 cells were obtained from the ATCC (American Type Culture Collection). The cells were maintained in Dulbecco's modified Eagle medium (DMEM) containing 4.5 g/L glucose and 25 mM Hepes, supplemented with 10% fetal calf serum, 100 U/mL penicillin G and […]. The medium was changed every second day. The cells were routinely checked for Mycoplasma in monthly intervals. Caco-2 cells were cultured on semi-permeable membranes to differentiate into a highly functionalized epithelial barrier with remarkable morphological and biochemical similarity to the small intestinal columnar epithelium. The Caco-2 cell monolayers could therefore be used to study the membrane transport properties of many compounds. To trypsinize the cells, the culture dish was washed once with phosphate-buffered saline (PBS) followed by adding trypsine-EDTA for 10 minutes. The trypsinized cells were separated and filtered into single cells using a 35-μm strainer cap (Falcon 2235) before being seeded for further experiments.
Caco-2 cells (5×10^4) were seeded in a 48-well plate and maintained in culture medium (DMEM with 10% FBS, 1% nonessential amino acids, L-glutamine, penicillin G (100 U/mL), streptomycin (10 μg/mL), and amphotericin B (2.5 μg/mL) in a 37° C. incubator for 10 days for the cells to differentiate. The culture medium was changed once every two days. The cells were then washed with PBS before replenishing with the culture medium containing 5% FBS and various astragalosides at the indicated concentrations (0.01, 0.1 and 1 μM) for 48 hours. The Caco2 cells were washed out of remaining glucose with PBS and replaced in the glucose buffer (80 mM NaCl, 100 mM mannitol, 20 mM Tris-HCl, pH 7.4, 3 mM K2HPO4, 1 mM CaCl2, 1 mg/mL BSA) for 1 hour. Glucose uptake was initiated by replacing the glucose buffer with 0.2 ml of glucose buffer containing 2 μCi/mL of ^14C-glucose and unlabeled cold glucose to give a final glucose concentration of 25 mM. Glucose uptake was stopped by removing the glucose buffer and washing with PBS at designated time intervals. The cells were lysed in 0.2 mL of 0.2 N NaOH, and 20 μL of the cell lysate were transferred to the filter-bottomed UniFilter plates (Perkin-Elmer, Wellesley, Mass., USA) and dried in a vacuum oven at 37° C. The bottom of the UniFilter plate was sealed and 25 μL of the counting solution were added into each well. Adhesive plate sealers were used in place of the lids and radioactivity of each sample was counted using the microplate liquid scintillation counter (TopCount, Packard NXT, Packard BioScience Company, Meriden, Conn., USA). The amount of glucose accumulated in the cells was calculated and normalized to protein concentration, and uptake rate was expressed as nanomoles of glucose per minutes per milligram of cell protein (nmol/min/mg). Protein concentration was determined by a standard Bicinchoninic acid (BCA) protein assay. Nonspecific glucose uptake was measured by adding 2 μCi of L-[^14C]-glucose and subtracting from each determination to obtain specific glucose uptake.

Caco2 cells [4] = assay: Folate uptake assay; parameters: key to * (regulatory effect on folate uptake): ↑: the arrows that point up represent the enhancing effect on folate uptake; details: compound 0.1 μM
How it was run: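 Caco-2 cells differentiated 10 days, then pretreated 2 days with 0.1 μM isolated astragalosides in 5% FBS medium. Preincubated 1 h in HBSS-based folate uptake buffer pH 6.0; uptake started with 2 μCi/mL ³H-folic acid plus unlabeled folate.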

CC(=O)O[C@@H]1[C@@H](O)[C@H](O[C@H]2CC[C@]34C[C@]35CC[C@]3(C)[C@@H]([C@@]6(C)CC[C@@H](C(C)(C)O)O6)[C@@H](O)C[C@@]3(C)[C@@H]5C[C@H](O[C@@H]3O[C@H](CO)[C@@H](O)[C@H](O)[C@H]3O)[C@H]4C2(C)C)OC[C@H]1O [IsoAS2, isoastragaloside II]
Regulatory effects on the arginine transport across the Caco2 cell monolayer (Caco-2 cell monolayer [1]; Table 3 summary): had regulatory effects on the arginine transport | * (regulatory effect on arginine transport) (Caco-2 cell monolayer [1]; compound 0.01 μM): ↑ | Percentage (arginine transport, control = 100) (Caco-2 cell monolayer [1]; compound 0.01 μM): 138.11% | Transport rate (arginine) (Caco-2 cell monolayer [1]; compound 0.01 μM): 14.7577 ± 0.2837 nmol/min | * (regulatory effect on arginine transport) (Caco-2 cell monolayer [1]; compound 0.1 μM): ↑ | Percentage (arginine transport, control = 100) (Caco-2 cell monolayer [1]; compound 0.1 μM): 132.01% | Transport rate (arginine) (Caco-2 cell monolayer [1]; compound 0.1 μM): 14.1059 ± 0.1815 nmol/min | * (regulatory effect on arginine transport) (Caco-2 cell monolayer [1]; compound 1 μM): ↑ | Percentage (arginine transport, control = 100) (Caco-2 cell monolayer [1]; compound 1 μM): 118.40% | Transport rate (arginine) (Caco-2 cell monolayer [1]; compound 1 μM): 12.6518 ± 0.3680 nmol/min | Arginine transport rate (Caco-2 cell monolayer [1]; concentration from 0.01 μM to 1 μM): increased | Regulatory effects on the tryptophan transport across the Caco2 cell monolayer (Caco-2 cell monolayer [2]; Table 4 summary): had regulatory effects on the tryptophan transport | * (regulatory effect on tryptophan transport) (Caco-2 cell monolayer [2]; compound 0.01 μM): ↑ | Percentage (tryptophan transport, control = 100) (Caco-2 cell monolayer [2]; compound 0.01 μM): 145.38% | Transport rate (tryptophan) (Caco-2 cell monolayer [2]; compound 0.01 μM): 13.000 ± 0.5547 nmol/min | * (regulatory effect on tryptophan transport) (Caco-2 cell monolayer [2]; compound 0.1 μM): ↑ | Percentage (tryptophan transport, control = 100) (Caco-2 cell monolayer [2]; compound 0.1 μM): 146.05% | Transport rate (tryptophan) (Caco-2 cell monolayer [2]; compound 0.1 μM): 13.060 ± 0.5530 nmol/min | * (regulatory effect on tryptophan transport) (Caco-2 cell monolayer [2]; compound 1 μM): ↑ | Percentage (tryptophan transport, control = 100) (Caco-2 cell monolayer [2]; compound 1 μM): 224.45% | Transport rate (tryptophan) (Caco-2 cell monolayer [2]; compound 1 μM): 20.070 ± 0.1931 nmol/min | Tryptophan transport rate (Caco-2 cell monolayer [2]; concentration from 0.01 μM to 1 mM): increased | Regulatory effects on the glucose uptake of the Caco2 cells (Caco2 cells [3]; Table 2 summary): had regulatory effects on the glucose uptake | * (regulatory effect on glucose uptake) (Caco2 cells [3]; compound 0.01 μM): ↑ | Percentage (glucose uptake, control = 100) (Caco2 cells [3]; compound 0.01 μM): 115.69% | Uptake rate (glucose) (Caco2 cells [3]; compound 0.01 μM): 7.3720 ± 2.5700 nmol/mg/min | * (regulatory effect on glucose uptake) (Caco2 cells [3]; compound 0.1 μM): ↑ | Percentage (glucose uptake, control = 100) (Caco2 cells [3]; compound 0.1 μM): 107.05% | Uptake rate (glucose) (Caco2 cells [3]; compound 0.1 μM): 6.8210 ± 1.6630 nmol/mg/min | Percentage (glucose uptake, control = 100) (Caco2 cells [3]; compound 1 μM): 96.55% | Uptake rate (glucose) (Caco2 cells [3]; compound 1 μM): 6.1520 ± 2.4610 nmol/mg/min | * (regulatory effect on folate uptake) (Caco2 cells [4]): ↑ | Percentage (folate uptake vs own control) (Caco2 cells [4]): 162.87% | Uptake rate (folate) (Caco2 cells [4]; 2 days, 5 μM folate, pH 6.0): 86.63 ± 2.82 pmol/mg/min
